Data as given in patent US7105521B2, “Eugenosedin-A based pharmacoligical agents” (Syn-Tech Chem & Pharm Co., Ltd., priority 2003, dated 2006).

What was measured:
[1] = Intra-cisternal injections: mean arterial BP and HR; type: in vivo, rats
Method: Intra-cisternal injections. […] Briefly, rats weighing 250–300 g were anaesthetized with pentobarbital sodium (50 mg kg^−1, i.p.) and mounted in a David-Kopf stereotaxic instrument (Yeh J L. et al., Brain. Res. Bull., 30:641–648, 1993). The calvarium was exposed and a 1 mm diameter trephine hole was drilled 1.8 mm lateral to the coronary and 1.5 mm posterior to the sagittal sutures. A cannula (0.7 mm O.D.) connected to a Hamilton syringe (RN-705, 5051) by PE-50 was advanced 4.7 mm into the brain using the electrode carrier.

α2-adrenergic receptors = experiment: Clonidine-induced contraction of isolated rat thoracic aorta; type: cell-based; conditions: 10^−8, 10^−7, 10^−6 M
Text: (§1) Isolation of rat thoracic aorta. Rat thoracic aorta was removed, cleaned of adhering fat and connective tissue and cut into 3–4 mm wide transverse rings.

5-HT2A receptor = 5-HT2A receptor (Rattus norvegicus, UniProt P14842); experiment: 5-HT-induced contraction of isolated rat thoracic aorta; type: cell-based; set-up: from tissue; host or cells: rat thoracic aorta rings
Text: as §1

5-HT2A receptor, sequence (P14842 whole entry): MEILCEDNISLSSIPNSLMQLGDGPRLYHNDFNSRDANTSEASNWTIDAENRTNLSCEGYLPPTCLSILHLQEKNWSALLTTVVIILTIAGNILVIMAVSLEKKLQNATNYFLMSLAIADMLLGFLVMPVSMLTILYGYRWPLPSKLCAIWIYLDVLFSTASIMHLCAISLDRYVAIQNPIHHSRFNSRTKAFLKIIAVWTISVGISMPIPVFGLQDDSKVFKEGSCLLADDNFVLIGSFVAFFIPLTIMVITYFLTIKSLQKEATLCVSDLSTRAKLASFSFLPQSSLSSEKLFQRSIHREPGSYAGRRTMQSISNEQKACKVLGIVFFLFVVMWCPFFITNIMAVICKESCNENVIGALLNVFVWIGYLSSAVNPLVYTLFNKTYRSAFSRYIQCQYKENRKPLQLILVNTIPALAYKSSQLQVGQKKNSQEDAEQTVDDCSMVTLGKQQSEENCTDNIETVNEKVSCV

Structure (SMILES): CC=Cc1ccc(OCC(O)CN2CCN(c3ccccc3Cl)CC2)c(OC)c1 (stereo not drawn) [eugenosedin-A]
- increase of HR ([1]; 0.3 μmol): up to 60 bpm
- pressor response ([1]; 0.3 μmol): up to 15 mmHg
- effect on mean arterial BP and HR ([1]; eugenosedin-A and trazodone 0.3, 0.03 μmol, yohimbine 0.03 μmol): increased mean arterial BP and HR
- cumulative clonidine-induced contractile activities (α2-adrenergic receptors): competitively inhibited
- Kb (5-HT2A receptor): 2.09 nM
- 5-HT-induced contractile activities (5-HT2A receptor; 10^−8, 10^−7, 10^−6 M, isolated rat thoracic aorta): concentration-dependently inhibited
